Assay results taken from ChEMBL document CHEMBL1201862, “PubChem BioAssay data set” (2004).
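Assay format: 96-well plates, 48-hour exposure. GI50 is the concentration that inhibits growth by half.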 Activity calls are given as the source filed them. Cut-off read from the data, not from the text of the source: active = GI50 up to about 1.1 µM and inactive = higher.

Experiments:
Assay in all cases: inhibition of tumour cell growth, NCI panel, 48 h
HOP-92 = system: HOP-92
A549 = system: A549
SK-MEL-28 = system: SK-MEL-28
A498 = system: A498
ACHN = system: ACHN
DMS-273 = system: DMS-273
RXF 631 = system: RXF 631
DLD-1 = system: DLD-1
HOP-18 = system: HOP-18
Malme-3M = system: Malme-3M
M14 = system: M14
XF498 = system: XF498
LXFL 529 = system: LXFL 529
U-251 = system: U-251
HCT-116 = system: HCT-116
EKVX = system: EKVX
CCRF-CEM = system: CCRF-CEM
LOX IMVI = system: LOX IMVI
SNB-78 = system: SNB-78
DMS-114 = system: DMS-114
CAKI-1 = system: CAKI-1
KM-20L2 = system: KM-20L2
OVCAR-8 = system: OVCAR-8
SK-MEL-2 = system: SK-MEL-2
OVCAR-4 = system: OVCAR-4
UACC-257 = system: UACC-257
M19-MEL = system: M19-MEL
TK-10 = system: TK-10
SK-MEL-5 = system: SK-MEL-5
COLO 205 = system: COLO 205
SF-539 = system: SF-539
RXF 393 = system: RXF 393
HOP-62 = system: HOP-62
SNB-75 = system: SNB-75
HCC 2998 = system: HCC 2998
NCI-H522 = system: NCI-H522
SF-295 = system: SF-295
UO-31 = system: UO-31
SR = system: SR
KM12 = system: KM12
HL-60 = system: HL-60
786-0 = system: 786-0
IGROV-1 = system: IGROV-1
SK-OV-3 = system: SK-OV-3
UACC-62 = system: UACC-62
OVCAR-3 = system: OVCAR-3
HCT-15 = system: HCT-15
SF-268 = system: SF-268
SN12C = system: SN12C
NCI-H460 = system: NCI-H460
K562 = system: K562
SW-620 = system: SW-620
NCI-H23 = system: NCI-H23
RPMI-8226 = system: RPMI-8226
OVCAR-5 = system: OVCAR-5
HT-29 = system: HT-29
MOLT-4 = system: MOLT-4
SNB-19 = system: SNB-19
NCI-H226 = system: NCI-H226

Structure (SMILES): C=C1C(=O)OC2C1C(OC(=O)/C(C)=C\C)CC1(CO1)C1C(O)C=C(C)C21O (stereo unspecified)
- GI50 (HOP-92): 10.7 µM (inactive)
- GI50 (A549): 20.6 µM (inactive)
- GI50 (SK-MEL-28): 2.93 µM (inactive)
- GI50 (A498): 5.02 µM (inactive)
- GI50 (ACHN): 3.16 µM (inactive)
- GI50 (DMS-273): 6.46 µM (inactive)
- GI50 (RXF 631): 3.52 µM (inactive)
- GI50 (DLD-1): 2.33 µM (inactive)
- GI50 (HOP-18): 10.9 µM (inactive)
- GI50 (Malme-3M): 2.74 µM (inactive)
- GI50 (M14): 2.63 µM (inactive)
- GI50 (XF498): 12.7 µM (inactive)
- GI50 (LXFL 529): 1.59 µM (inactive)
- GI50 (U-251): 12.2 µM (inactive)
- GI50 (HCT-116): 1.53 µM (inactive)
- GI50 (EKVX): 12.8 µM (inactive)
- GI50 (CCRF-CEM): 2.65 µM (inactive)
- GI50 (LOX IMVI): 14.4 µM (inactive)
- GI50 (SNB-78): 9.53 µM (inactive)
- GI50 (DMS-114): 3.19 µM (inactive)
- GI50 (CAKI-1): 2.04 µM (inactive)
- GI50 (KM-20L2): 3.19 µM (inactive)
- GI50 (OVCAR-8): 2.67 µM (inactive)
- GI50 (SK-MEL-2): 3.72 µM (inactive)
- GI50 (OVCAR-4): 7.78 µM (inactive)
- GI50 (UACC-257): 9.73 µM (inactive)
- GI50 (M19-MEL): 6.24 µM (inactive)
- GI50 (TK-10): 3.44 µM (inactive)
- GI50 (SK-MEL-5): 4.28 µM (inactive)
- GI50 (COLO 205): 1.17 µM (inactive)
- GI50 (SF-539): 2.61 µM (inactive)
- GI50 (RXF 393): 2.73 µM (inactive)
- GI50 (HOP-62): 23.6 µM (inactive)
- GI50 (SNB-75): 10.6 µM (inactive)
- GI50 (HCC 2998): 4.63 µM (inactive)
- GI50 (NCI-H522): 0.942 µM (active)
- GI50 (SF-295): 20.8 µM (inactive)
- GI50 (UO-31): 10.3 µM (inactive)
- GI50 (SR): 4.83 µM (inactive)
- GI50 (KM12): 11.5 µM (inactive)
- GI50 (HL-60): 3.04 µM (inactive)
- GI50 (786-0): 2.96 µM (inactive)
- GI50 (IGROV-1): 14.5 µM (inactive)
- GI50 (SK-OV-3): 16.7 µM (inactive)
- GI50 (UACC-62): 1.74 µM (inactive)
- GI50 (OVCAR-3): 3.77 µM (inactive)
- GI50 (HCT-15): 2.81 µM
- GI50 (SF-268): 2.64 µM (inactive)
- GI50 (SN12C): 3.27 µM (inactive)
- GI50 (NCI-H460): 14.3 µM (inactive)
- GI50 (K562): 4.72 µM (inactive)
- GI50 (SW-620): 1.58 µM (inactive)
- GI50 (NCI-H23): 7.19 µM (inactive)
- GI50 (RPMI-8226): 4.56 µM (inactive)
- GI50 (OVCAR-5): 19.7 µM (inactive)
- GI50 (HT-29): 13 µM (inactive)
- GI50 (MOLT-4): 2 µM (inactive)
- GI50 (SNB-19): 20.7 µM (inactive)

Structure (SMILES): CC(=O)N1CCC(=O)/C(=C/c2ccccc2)C1
- GI50 (HOP-92): 33.1 µM (inactive)
- GI50 (A549): 71.9 µM (inactive)
- GI50 (SK-MEL-28): 18 µM (inactive)
- GI50 (A498): 56.5 µM (inactive)
- GI50 (ACHN): 22.1 µM (inactive)
- GI50 (DMS-273): 33 µM (inactive)
- GI50 (RXF 631): 28.9 µM (inactive)
- GI50 (DLD-1): 24.1 µM (inactive)
- GI50 (HOP-18): 23.2 µM (inactive)
- GI50 (Malme-3M): 91.2 µM (inactive)
- GI50 (M14): 33.8 µM (inactive)
- GI50 (XF498): 64 µM (inactive)
- GI50 (LXFL 529): 21.9 µM (inactive)
- GI50 (U-251): 17.1 µM (inactive)
- GI50 (HCT-116): 18.1 µM (inactive)
- GI50 (LOX IMVI): 16.1 µM (inactive)
- GI50 (SNB-78): 38.5 µM (inactive)
- GI50 (DMS-114): 15.8 µM (inactive)
- GI50 (CAKI-1): 15.5 µM (inactive)
- GI50 (KM-20L2): 27.4 µM (inactive)
- GI50 (OVCAR-8): 21.2 µM (inactive)
- GI50 (OVCAR-4): 19.3 µM (inactive)
- GI50 (UACC-257): > 100 µM (inactive)
- GI50 (M19-MEL): 20.4 µM (inactive)
- GI50 (TK-10): 97.3 µM (inactive)
- GI50 (SK-MEL-5): 34 µM (inactive)
- GI50 (COLO 205): 34.6 µM (inactive)
- GI50 (SF-539): 23.3 µM (inactive)
- GI50 (RXF 393): 22.8 µM (inactive)
- GI50 (HOP-62): 89.3 µM (inactive)
- GI50 (SNB-75): 37.1 µM (inactive)
- GI50 (HCC 2998): 33.1 µM (inactive)
- GI50 (SF-295): 42.8 µM (inactive)
- GI50 (UO-31): > 100 µM (inactive)
- GI50 (SR): 24.5 µM (inactive)
- GI50 (KM12): 24.3 µM (inactive)
- GI50 (786-0): 27.7 µM (inactive)
- GI50 (IGROV-1): 19.8 µM (inactive)
- GI50 (SK-OV-3): 75.2 µM (inactive)
- GI50 (UACC-62): 24.7 µM (inactive)
- GI50 (OVCAR-3): 33.3 µM (inactive)
- GI50 (HCT-15): 17.1 µM
- GI50 (SF-268): 20.5 µM (inactive)
- GI50 (SN12C): 18.2 µM (inactive)
- GI50 (NCI-H226): > 100 µM (inactive)
- GI50 (NCI-H460): 27.7 µM (inactive)
- GI50 (K562): 37.8 µM (inactive)
- GI50 (SW-620): 17.6 µM (inactive)
- GI50 (NCI-H23): 32.4 µM (inactive)
- GI50 (RPMI-8226): 42.7 µM (inactive)
- GI50 (OVCAR-5): > 100 µM (inactive)
- GI50 (HT-29): 20.3 µM (inactive)
- GI50 (MOLT-4): 33.2 µM (inactive)
- GI50 (SNB-19): > 100 µM (inactive)

Structure (SMILES): Nc1c([N+](=O)[O-])nc(Cl)c2nncn12
- GI50 (HOP-92): > 100 µM (inactive)
- GI50 (A549): > 100 µM (inactive)
- GI50 (SK-MEL-28): > 100 µM (inactive)
- GI50 (A498): > 100 µM (inactive)
- GI50 (ACHN): > 100 µM (inactive)
- GI50 (DMS-273): 16.5 µM (inactive)
- GI50 (RXF 631): > 100 µM (inactive)
- GI50 (DLD-1): > 58.9 µM (inactive)
- GI50 (HOP-18): > 100 µM (inactive)
- GI50 (Malme-3M): > 100 µM (inactive)
- GI50 (M14): > 100 µM (inactive)
- GI50 (XF498): > 100 µM (inactive)
- GI50 (LXFL 529): > 78.9 µM (inactive)
- GI50 (U-251): > 71.9 µM (inactive)
- GI50 (HCT-116): > 45 µM (inactive)
- GI50 (EKVX): > 100 µM (inactive)
- GI50 (CCRF-CEM): > 46 µM (inactive)
- GI50 (LOX IMVI): > 43.8 µM (inactive)
- GI50 (SNB-78): > 100 µM (inactive)
- GI50 (DMS-114): > 42 µM (inactive)
- GI50 (CAKI-1): > 100 µM (inactive)
- GI50 (KM-20L2): > 87.1 µM (inactive)
- GI50 (OVCAR-8): > 100 µM (inactive)
- GI50 (SK-MEL-2): > 100 µM (inactive)
- GI50 (OVCAR-4): > 100 µM (inactive)
- GI50 (UACC-257): > 100 µM (inactive)
- GI50 (M19-MEL): > 100 µM (inactive)
- GI50 (TK-10): > 100 µM (inactive)
- GI50 (SK-MEL-5): > 100 µM (inactive)
- GI50 (COLO 205): > 43 µM (inactive)
- GI50 (SF-539): > 95.5 µM (inactive)
- GI50 (RXF 393): > 100 µM (inactive)
- GI50 (HOP-62): > 100 µM (inactive)
- GI50 (SNB-75): > 23.7 µM (inactive)
- GI50 (HCC 2998): > 100 µM (inactive)
- GI50 (NCI-H522): > 74.6 µM (inactive)
- GI50 (SF-295): > 100 µM (inactive)
- GI50 (UO-31): > 100 µM (inactive)
- GI50 (SR): 19.9 µM (inactive)
- GI50 (KM12): > 100 µM (inactive)
- GI50 (HL-60): > 100 µM (inactive)
- GI50 (786-0): > 87.7 µM (inactive)
- GI50 (IGROV-1): > 100 µM (inactive)
- GI50 (SK-OV-3): > 100 µM (inactive)
- GI50 (UACC-62): > 100 µM (inactive)
- GI50 (OVCAR-3): > 100 µM (inactive)
- GI50 (HCT-15): 19.3 µM
- GI50 (SF-268): > 87.9 µM (inactive)
- GI50 (SN12C): > 100 µM (inactive)
- GI50 (NCI-H226): > 100 µM (inactive)
- GI50 (NCI-H460): > 56.6 µM (inactive)
- GI50 (K562): > 72.4 µM (inactive)
- GI50 (SW-620): > 100 µM (inactive)
- GI50 (NCI-H23): > 100 µM (inactive)
- GI50 (RPMI-8226): > 47.1 µM (inactive)
- GI50 (OVCAR-5): > 100 µM (inactive)
- GI50 (HT-29): 96.8 µM (inactive)
- GI50 (MOLT-4): > 100 µM (inactive)
- GI50 (SNB-19): > 100 µM (inactive)
